Measured values: patent US12612424B2, “HPK1 inhibitors and uses thereof” (Regor Pharmaceuticals, Inc., priority 2019, dated 2026)
pEC50: −log10 of the molar value.

Test system: Human Pan T Cell (IL-2 release)
Assay: IL2 released by human pan T cell upon anti-CD3/anti-CD28 stimulation (ELISA)
Assay type: cell-based
Settings: human pan T cells; for maximal fold induction / EC (2-fold response) / pEC50: Homo sapiens, T-cell; for maximal fold induction / EC (2-fold response): 48 h; for maximal fold induction: response of IL-2 over DMSO control, anti-CD3/anti-CD28, 48 hours, ELISA, read-out: IL-2 Max Fold Response; for pEC50: IL-2 response, calculated with GraphPad Prism
In short: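 Primary human pan-T cells, negatively isolated from PBMC, plated at 100,000 cells/well and stimulated with immobilized anti-CD3 plus soluble anti-CD28 in presence of test compound at varying concentrations. After 2 days, secreted IL-2 in supernatant quantified by ELISA.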

[1] = concentration of compound that gives 200% IL-2 response (2 folds) over DMSO control

SMILES	pEC50	maximal fold induction	EC (2-fold response) [1]	EC2x (nM) [1]
COc1cc2c(cc1Nc1ncc(Cl)c(-n3cc(P(C)(C)=O)c4ccccc43)n1)CN(C)CC2 [Example 1, (1-(5-Chloro-2-((6-methoxy-2-methyl-1,2,3,4-tetrahydroisoquinolin-7-yl)amino)pyrimidin-4-yl)-1H-indol-3-yl)dimethylphosphine oxide]	–	< 2	–	–
COc1nc2c(cc1Nc1ncc(Cl)c(N3CCc4ccccc43)n1)CN(C)CC2 [Example 19, N-(5-chloro-4-(indolin-1-yl)pyrimidin-2-yl)-2-methoxy-6-methyl-5,6,7,8-tetrahydro-1,6-naphthyridin-3-amine]	6.30 to 7.00	> 2	0.1 to 0.5 µM	–
COc1cc2c(cc1Nc1ncc(Cl)c(N3CCc4cc(F)ccc43)n1)CN(C)CC2 [Example 20, N-(5-chloro-4-(5-fluoroindolin-1-yl)pyrimidin-2-yl)-6-methoxy-2-methyl-1,2,3,4-tetrahydroisoquinolin-7-amine]	6.30 to 7.00	> 2	0.1 to 0.5 µM	–
COc1cc2c(cc1Nc1ncc(Cl)c(N3CCc4ccc(F)cc43)n1)CN(C)CC2 [Example 21, N-(5-chloro-4-(6-fluoroindolin-1-yl)pyrimidin-2-yl)-6-methoxy-2-methyl-1,2,3,4-tetrahydroisoquinolin-7-amine]	6.30 to 7.00	> 2	0.1 to 0.5 µM	–
COc1cc2c(cc1Nc1ncc(Cl)c(N3CCc4ccccc43)n1)CN(C(C)C)CC2 [Example 22, N-(5-chloro-4-(indolin-1-yl)pyrimidin-2-yl)-2-isopropyl-6-methoxy-1,2,3,4-tetrahydroisoquinolin-7-amine]	6.00 to 6.30	> 2	0.1 to 0.5 µM	–
COc1cc2c(cc1Nc1ncc(Cl)c(N3CC(C(N)=O)c4ccccc43)n1)CN(C)CC2 (stereo not drawn) [Example 33, 1-(5-Chloro-2-((6-methoxy-2-methyl-1,2,3,4-tetrahydroisoquinolin-7-yl)amino)pyrimidin-4-yl)indoline-3-carboxamide]	–	< 2	–	–
COc1cc2c(cc1Nc1ncc(Cl)c(-n3cc(C(N)=O)c4ccccc43)n1)CN(C)CC2 [Example 34]	–	< 2	–	–
COc1cc2c(cc1Nc1ncc3ccn(-c4ccccc4)c3n1)CN(C)CC2 [Example 36, 6-methoxy-2-methyl-N-(7-phenyl-7H-pyrrolo[2,3-d]pyrimidin-2-yl)-1,2,3,4-tetrahydroisoquinolin-7-amine]	–	< 2	–	–

Further lines, with some results ahead:

pEC50	SMILES	maximal fold induction	EC (2-fold response) [1]	EC2x (nM) [1]
6.30 to 7.00	COc1cc2c(cc1Nc1ncc(Cl)c(N3CCc4ccccc43)n1)CNCC2 [Example 23, N-(5-chloro-4-(indolin-1-yl)pyrimidin-2-yl)-6-methoxy-1,2,3,4-tetrahydroisoquinolin-7-amine]	< 2	–	–
6.00 to 6.30	COc1cc2c(cc1Nc1ncc(Cl)c(-n3ncc4ccccc43)n1)CN(C)CC2 [Example 24, N-(5-Chloro-4-(1H-indazol-1-yl)pyrimidin-2-yl)-6-methoxy-2-methyl-1,2,3,4-tetrahydroisoquinolin-7-amine]	< 2	–	–
6.00 to 6.30	COc1cc2c(cc1Nc1ncc(Cl)c(N3CC(C)(C)c4ccccc43)n1)CN(C)CC2 [Example 25, N-(5-Chloro-4-(3,3-dimethylindolin-1-yl)pyrimidin-2-yl)-6-methoxy-2-methyl-1,2,3,4-tetrahydroisoquinolin-7-amine]	> 2	0.1 to 0.5 µM	–
6.00 to 6.30	COc1nc2c(cc1Nc1ncc(Cl)c(N3CCc4ncccc43)n1)CN(C)CC2 [Example 29, N-(5-Chloro-4-(2,3-dihydro-1H-pyrrolo[3,2-b]pyridin-1-yl)pyrimidin-2-yl)-2-methoxy-6-methyl-5,6,7,8-tetrahydro-1,6-naphthyridin-3-amine]	< 2	–	–
6.30 to 7.00	COc1cc2c(cc1Nc1ncc(Cl)c(N3CC(C(=O)O)c4ccccc43)n1)CN(C)CC2 (stereo not drawn) [Example 32, 1-(5-Chloro-2-((6-methoxy-2-methyl-1,2,3,4-tetrahydroisoquinolin-7-yl)amino)pyrimidin-4-yl)indoline-3-carboxylic acid]	> 2	0.1 to 0.5 µM	–
6.00 to 6.30	COc1cc2c(cc1Nc1ncc(Cl)c(-n3cc(C(=O)O)c4ccccc43)n1)CN(C)CC2 [Example 35]	> 2	–	+ (“+”, for greater than 1 μM)
6.30 to 7.00	COc1cc2c(cc1Nc1ncc3ccn(-c4ccccn4)c3n1)CN(C)CC2 [Example 37, 6-Methoxy-2-methyl-N-(7-(pyridin-2-yl)-7H-pyrrolo[2,3-d]pyrimidin-2-yl)-1,2,3,4-tetrahydroisoquinolin-7-amine]	< 2	–	–
